Test results taken from paper PMC9623087, “Bioaffinity ultrafiltration coupled with HPLC-ESI-MS/MS for screening potential α-glucosidase inhibitors from pomegranate peel” (Frontiers in Nutrition, 2022).
Each block holds one compound with its values, some of them ahead of it.

Legend:
Kunming mice = test: Sucrose-loading test, postprandial blood glucose; type: in vivo; details: gavage, 0-120 min
Method: Kunming mice (male, 35–40 g) were gained from Xi’an Jiaotong University (Xi’an, China). […] After gavage, the blood glucose levels were measured at 0, 15, 30, 45, 60, 90, and 120 min by glucose detection kit (Robio Co., Shanghai, China). The whole process conformed to the Guide for the Care and Use of Laboratory Animals, eighth edition (ISBN 10: 0-309-15396-4) ([22]).

α-glucosidase [1] = molecular target: T1, α-glucosidase (Saccharomyces cerevisiae, UniProt P53341); test: Atomic force microscopy of α-glucosidase with EA; details: EA 40 μg/mL, α-glucosidase 2.0 U/mL, co-incubation 30 min
T1 sequence (P53341 whole entry): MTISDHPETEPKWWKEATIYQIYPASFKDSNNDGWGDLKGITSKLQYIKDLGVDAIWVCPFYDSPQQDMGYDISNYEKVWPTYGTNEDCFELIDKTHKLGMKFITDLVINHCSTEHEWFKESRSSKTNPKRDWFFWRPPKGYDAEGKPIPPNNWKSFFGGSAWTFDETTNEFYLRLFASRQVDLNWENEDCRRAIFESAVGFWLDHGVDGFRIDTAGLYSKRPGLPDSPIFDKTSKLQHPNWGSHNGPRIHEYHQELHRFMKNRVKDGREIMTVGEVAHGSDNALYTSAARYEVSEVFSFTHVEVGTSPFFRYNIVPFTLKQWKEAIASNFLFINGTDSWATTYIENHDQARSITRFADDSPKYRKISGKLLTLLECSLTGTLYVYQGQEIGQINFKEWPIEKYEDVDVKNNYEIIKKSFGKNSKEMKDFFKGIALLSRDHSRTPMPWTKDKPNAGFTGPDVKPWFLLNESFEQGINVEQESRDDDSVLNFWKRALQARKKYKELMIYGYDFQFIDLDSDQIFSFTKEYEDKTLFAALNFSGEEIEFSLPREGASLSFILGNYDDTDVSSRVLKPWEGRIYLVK

α-glucosidase [2] = molecular target: T1, α-glucosidase; design: method as in PMID 20232167; details: EA isolated and identified from Rosa gallica; cited from earlier work
α-glucosidase [3] = molecular target: T1, α-glucosidase; test: Kinetic analysis: Lineweaver–Burk plot and inhibitory reversibility; type: biochemical
Method: Lineweaver–Burk plot was employed to determine the inhibitory type of EA against α-glucosidase ([23]). Briefly, 20 μL α-glucosidase (5 U/mL) was mixed with different concentrations (0, 10, 15, 20, 30 μg/mL) of EA and incubated at 37°C for 15 min. pNPG (1.0, 2.0, 4.0, and 8.0 × 10^–3 mol/L) was added to initiate the reaction and the changes of absorbance were recorded every 60 s immediately. The double-reciprocal plots of reaction velocity (υ) against different concentration of pNPG (1/υ vs. 1/[pNPG]) were analyzed using the Lineweaver–Burk plot to determine inhibition constant (Ki).
To determine the inhibitory reversibility of EA against α-glucosidase, different concentrations (0, 20, 40, 60, and 100 μg/mL) of EA were reacted with the range of 7.5–1 U/mL α-glucosidase, the absorbance was recorded every 60 s immediately after the pNPG (3 mM) was added ([24]).

α-glucosidase [4] = molecular target: T1, α-glucosidase; test: Circular dichroism spectra, secondary structure contents of α-glucosidase; details: EA 2 mg/mL, α-glucosidase 5.0 U/mL
Method: The analysis of CD spectrum was performed according to the previous report with some modifications ([26]). Briefly, both α-glucosidase and EA were dissolved in PBS (pH = 6.8). […] The spectrum scanning range was 200–250 nm, the response time and scanning speed were 1 s and […], respectively.

α-glucosidase [5] = molecular target: T1, α-glucosidase; test: α-glucosidase inhibition assay (pNPG, absorbance at 405 nm); type: biochemical; details: 0.1 mg/mL and 0.5 mg/mL, Figure 1
Method: Different concentrations (0.01, 0.1, 1, 5, and 10 mg/mL) of Pop extract samples, PBS (pH = 6.8), and α-glucosidase (5 U/mL) were mixed together with equal volumes and co-incubated at 37°C for 15 min. 20 μL pNPG (3 mM) was added to incubate for another 10 min and 150 μL Na2CO3 (0.1 mol/L) was used to stop the reaction. […] Meanwhile, the blank group without samples were simultaneously carried out and the inhibition ratios were calculated ([21], [22]).
For identified compounds, two concentrations (0.1 mg/mL and 0.5 mg/mL) of each inhibitor were prepared and added to PBS (pH = 6.8) and α-glucosidase (5 U/mL) with equal volumes. After that, 20 μL pNPG (3 mM) was added to initiate the reactions and the changes of absorbance were recorded every 20 s immediately.

α-glucosidase [6] = molecular target: T1, α-glucosidase; test: Fluorescence quenching of α-glucosidase by EA (Stern–Volmer, binding and thermodynamic analysis)
Method: The fluorescence spectra of α-glucosidase with or without EA were measured at three different temperatures (298, 304, and 310 K) according to the previous study ([21]). Exactly, 2.5 mL α-glucosidase (15 U/mL) was titrated by continuous additions of EA (5 μL each time) to reach a final concentration range from 0 to 19.89 × 10^–6 mol/L. After 5 min of equilibration under different temperatures, the steady fluorescence emission spectra were recorded from 300 to 460 nm with an excitation wavelength of 280 nm. Additionally, the fluorescence of free EA was measured as the background. According to fluorescence spectra data, the quenching constant (Ksv), binding constant (Ka), number of binding sites (n), the binding constant of accessible fluorophores, and the values of free energy change (△G^0), △H^0 and △S^0 were calculated according the previous reports ([21], [22], [25]).
To further exploit the quenching mechanism, Ksv was calculated by Stern–Volmer equation to determine the quench type, dynamic quenching or static quenching:
(1) F0/F=1+KSV[Q]=1+Kqτ0[Q]
where F0 and F are the peak of fluorescence intensities of α-glucosidase […], respectively; Ksv is the dynamic quenching constant; Kq is the quenching rate constant; [Q] is the different concentrations of EA; τ0 is the average lifetime of fluorescence with the value of 10^–8 s.
For static quenching, the equation as follow was employed to calculate binding constant (Ka) and number of binding sites (n) between EA and α-glucosidase:
(2) lgF0-F/F=lgKa+nlg[Q]
Thermodynamic analysis was performed to further determine the binding forces between EA and α-glucosidase, and the relevant thermodynamic parameters, including△G^0,△H^0, and △S^0, were calculated by the two following equations: […]

SMILES: O=c1oc2c(O)c(O)cc3c(=O)oc4c(O)c(O)cc1c4c23 [EA, Ellagic acid]
reduction of AUC of blood glucose (Kunming mice; sucrose 2 g/kg + EA 25 mg/kg): 31.8%
effect on α-glucosidase molecules observed by AFM (in words) (α-glucosidase [1]): aggregated together and formed irregular polymers
α-glucosidase inhibition (in words) (α-glucosidase [2]): almost no α-glucosidase inhibition
inhibitory type (α-glucosidase [3]; Lineweaver–Burk plot, lines intersect on Y axis): competitive
inhibitory reversibility (α-glucosidase [3]; υ vs. [α-glucosidase], EA 0-100 μg/mL): reversible
Random coil content of α-glucosidase (α-glucosidase [4]; VEA:Vα–glucosidase 25:200): 28.43 ± 0.21%
α–helix content of α-glucosidase (α-glucosidase [4]; VEA:Vα–glucosidase 25:200): 29.53 ± 0.29%
β–sheet content of α-glucosidase (α-glucosidase [4]; VEA:Vα–glucosidase 25:200): 23.73 ± 0.21%
β–turn content of α-glucosidase (α-glucosidase [4]; VEA:Vα–glucosidase 25:200): 18.07 ± 0.21%
Random coil content of α-glucosidase (α-glucosidase [4]; VEA:Vα–glucosidase 50:200): 30.47 ± 0.33%
α–helix content of α-glucosidase (α-glucosidase [4]; VEA:Vα–glucosidase 50:200): 28.17 ± 0.21%
β–sheet content of α-glucosidase (α-glucosidase [4]; VEA:Vα–glucosidase 50:200): 26.60 ± 0.22%
β–turn content of α-glucosidase (α-glucosidase [4]; VEA:Vα–glucosidase 50:200): 18.57 ± 0.29%
Random coil content of α-glucosidase (α-glucosidase [4]; VEA:Vα–glucosidase 100:200): 32.87 ± 0.33%
α–helix content of α-glucosidase (α-glucosidase [4]; VEA:Vα–glucosidase 100:200): 24.83 ± 0.29%
β–sheet content of α-glucosidase (α-glucosidase [4]; VEA:Vα–glucosidase 100:200): 31.00 ± 0.54%
β–turn content of α-glucosidase (α-glucosidase [4]; VEA:Vα–glucosidase 100:200): 18.70 ± 0.33%
α-glucosidase inhibitory activity of identified compounds (in words) (α-glucosidase [5]): strongest activity
fluorescence quenching mechanism (α-glucosidase [6]): static quenching mechanism
Ksv (quenching constant) (α-glucosidase [6]; 298 K): 4.75 ± 0.01 ×10^5 L/mol
n (number of binding sites) (α-glucosidase [6]; 298 K): 0.87
ΔG^0 (α-glucosidase [6]; 298 K): -5.533 ± 0.0072 kcal/mol
Ksv (quenching constant) (α-glucosidase [6]; 304 K): 4.05 ± 0.03 ×10^5 L/mol
n (number of binding sites) (α-glucosidase [6]; 304 K): 0.83
ΔG^0 (α-glucosidase [6]; 304 K): -5.33 ± 0.014 kcal/mol
Ksv (quenching constant) (α-glucosidase [6]; 310 K): 3.32 ± 0.01 ×10^5 L/mol
n (number of binding sites) (α-glucosidase [6]; 310 K): 0.86
ΔG^0 (α-glucosidase [6]; 310 K): -5.048 ± 0.012 kcal/mol
Kq (quenching rate constant) (α-glucosidase [6]; at each temperature (298, 304, 310 K)): > 2.0 × 10^10 L/mol⋅s
ΔH^0 (α-glucosidase [6]; from 298, 304 and 310 K): -17.58 ± 0.086 kcal/mol
ΔS^0 (α-glucosidase [6]; from 298, 304 and 310 K): −169.14 ± 0.33 J/mol⋅K

SMILES: C[C@H]1O[C@H](O[C@H]2[C@H](O)[C@@H](O)[C@@H](O[C@H]3[C@H](O)[C@@H](O)C(O)O[C@@H]3CO)O[C@@H]2CO)[C@H](O)[C@@H](O)[C@@H]1N[C@H]1C=C(CO)[C@@H](O)[C@H](O)[C@H]1O (some centres unmarked) [acarbose, Acarbose, reference compound]
reduction of AUC of blood glucose (Kunming mice; sucrose 2 g/kg + acarbose 50 mg/kg): 36.4%

α-glucosidase inhibitory activity of identified compounds (in words) (α-glucosidase [5]): strong activity
SMILES: O=C(O)c1cc(O)c(O)c(O)c1 [gallic acid, Gallic acid]

α-glucosidase inhibitory activity of identified compounds (in words) (α-glucosidase [5]): strong activity
SMILES: O=c1c(O)c(-c2ccc(O)cc2)oc2cc(O)cc(O)c12 [kaempferol, Kaempferol]

SMILES: Oc1ccc(/C=C/c2cc(O)cc(O)c2)cc1 [resveratrol, Resveratrol]
α-glucosidase inhibitory activity of identified compounds (in words) (α-glucosidase [5]): strong inhibitory activity
